Legend:
response regulator HssR = experiment: HssR dependence of XylE inducing activity, Newman; assay type: cell-based, Staphylococcus aureus; conditions: whether XylE inducing activity requires HssR
Procedure: With reference to Table 1, “Luminescence” refers to the raw luminescence value obtained in a luminomter. “Control (82.5 nm)” refers to the luminescence value obtained from heme at 82.5 nM as a positive control in the same plate as the experimental. “% lum” is the percentage of luminescence induced by the compound as compared to the heme control in the same plate. […] All of these assays are described in the application. […] “N/T” indicates the test was not performed. […]
S. aureus strains harboring the appropriate reporter construct were inoculated into 500 μl of TSB containing 10 μg/ml chloramphenicol in 1.5 ml tubes. Cultures were grown O/N at 37° C. with shaking. Bacteria were pelleted by centrifugation and spent medium was aspirated. The pellet was washed once with 500 μl of 20 mM potassium phosphate, pH 7.6, and resuspended in 150 μl of 100 mM potassium phosphate buffer, pH 8.0, 10% (v/v) acetone, 25 μg/ml lysostaphin. After 20 minute incubation at 37° C. and 5 minute incubation on ice, samples were centrifuged at 20,000 g for 30 minutes at 4° C. 1-10 μl of supernatant was added to a 96-well plate and 200 μl of 100 mM potassium phosphate, pH 8.0, 0.2 mM pyrocatechol was added to each well. Formation of 2-hydroxymuconic semialdehyde was tracked by measuring the absorbance at 375 nm every minute for 30 minutes on a Varian MP 50 microplate reader. Protein concentration in samples was determined by BCA (Pierce). One unit of specific activity of XylE in a sample is defined as the formation of 1 nmol of 2-hydroxymuconic semialdehyde per minute per milligram of cellular protein at 30° C. (Chien, Y., Manna, A. C., Projan, S. J., and Cheung, A. L. 1999, “SarA, a global regulator of virulence determinants in Staphylococcus aureus, binds to a conserved motif essential for sar-dependent gene regulation. J. Biol. Chem. 274, 37169-37176).

[1] = tested on: S. aureus heme toxicity adaptation; experiment: Heme adaptation (resistance to heme-mediated toxicity), Newman; assay type: cell-based, Staphylococcus aureus; conditions: whether compound induces heme adaptation
Procedure: With reference to Table 1, “Luminescence” refers to the raw luminescence value obtained in a luminomter. “Control (82.5 nm)” refers to the luminescence value obtained from heme at 82.5 nM as a positive control in the same plate as the experimental. “% lum” is the percentage of luminescence induced by the compound as compared to the heme control in the same plate. […] All of these assays are described in the application. […] “N/T” indicates the test was not performed.
This secondary counter screen can involve testing the compounds of interest for their ability to increase the resistance of wildtype S. aureus to heme-mediated toxicity. Upon sensing heme, HssRS increases the expression of hrtAB, in turn increasing the resistance of S. aureus to heme mediated toxicity. By extension, additional molecules recognized by HssRS leading to hrtAB activation can result in a similar increase in resistance to heme mediated toxicity. For this assay, bacteria can be grown for 15 hours in the presence of compounds of interest (using concentrations determined in the XylE assay), followed by subculture into TSB containing 10 μM heme. Compounds that increase the resistance of S. aureus to heme-mediated toxicity can be selected for further studies. S. aureus strains unable to adapt to heme mediated toxicity (ΔhssR) can be included as a negative control. As a positive control, wildtype S. aureus can be exposed to subinhibitory concentrations of heme prior to subculture. The inclusion of this secondary counterscreen can, in some aspects, rule out compounds that non-specifically increase the expression of the XylE and Lux-based reporter genes.
S. aureus cultures were grown overnight (O/N ˜15 hrs) at 37° C. with shaking at 180 RPM in tryptic soy broth (TSB). Cultures were diluted 1:75 and inoculated into roundbottom 96-well plates in a final volume of 150 μl. Cultures were grown at 37° C. with aeration and bacterial growth was monitored by the increase in absorbance (O.D.600) over time. For the hemin adaptation assays, the medium was supplemented with different hemin concentrations prior to bacterial inoculation. The results represent the mean±S.D. from triplicate determinations and the asterisks denote statistically significant differences as determined by Student's t test (p<0.05).

COc1ccc(-c2cc(-c3ccc(C)cc3)[nH]n2)c(O)c1
HssR Dep (response regulator HssR): + | Heme Adapt [1]: +

COc1ccc(-c2cc(-c3ccc(OC)cc3O)n[nH]2)cc1
HssR Dep (response regulator HssR): + | Heme Adapt [1]: +

COc1ccc(C(=O)Nc2sc(-c3ccccc3)cc2C(N)=O)cc1
HssR Dep (response regulator HssR): + | Heme Adapt [1]: +

Fc1ccc(CNC(=S)Nc2ccc(Oc3ccccc3)cc2)cc1
HssR Dep (response regulator HssR): + | Heme Adapt [1]: +

CC(C)(C)c1ccc(O)c(NC(=S)NC(=O)c2cc3ccccc3o2)c1
HssR Dep (response regulator HssR): + | Heme Adapt [1]: +

Oc1c(-c2cc(-c3ccco3)[nH]n2)ccc2ccccc12 [drawing 25]
HssR Dep (response regulator HssR): + | Heme Adapt [1]: +

CC(NC(=O)C1(c2ccccc2)CCCC1)C1COc2ccccc2O1 (stereo not shown) [drawing 26]
HssR Dep (response regulator HssR): + | Heme Adapt [1]: +

Cc1ccc(O)c(NC(=O)c2nn3c(c2Br)NC(c2ccco2)CC3C(F)(F)F)c1 (stereo not shown) [drawing 29]
HssR Dep (response regulator HssR): + | Heme Adapt [1]: +

Cc1cccc(C(=O)Nc2ccc(-c3nc4ccccc4o3)cc2)c1 [drawing 43]
HssR Dep (response regulator HssR): + | Heme Adapt [1]: +

CC(NC(=O)C1(c2ccccc2)CCCC1)C1COc2ccccc2O1 (stereo not shown) [drawing 45]
HssR Dep (response regulator HssR): + | Heme Adapt [1]: +

O=C(N/N=C/c1ccc(-c2ccc(Br)cc2)o1)C1COc2ccccc2O1 (stereo not shown) [drawing 48]
HssR Dep (response regulator HssR): + | Heme Adapt [1]: +

O=C(N/N=C/c1ccc(-c2cccc(C(F)(F)F)c2)o1)C1COc2ccccc2O1 (stereo not shown) [drawing 49]
HssR Dep (response regulator HssR): + | Heme Adapt [1]: +

COc1ccc(Br)cc1C(=O)NC(=S)Nc1cc(C)c(C)cc1O [drawing 63]
HssR Dep (response regulator HssR): + | Heme Adapt [1]: +

Oc1c(-c2cc(-c3ccco3)[nH]n2)ccc2ccccc12 [drawing 65]
HssR Dep (response regulator HssR): + | Heme Adapt [1]: +

CCCN1C(=O)/C(=C2/C(=O)N(CC(=O)Nc3ccc(Cl)cc3)c3ccccc32)SC1=S [drawing 67]
HssR Dep (response regulator HssR): + | Heme Adapt [1]: +

Cc1ccc(NS(=O)(=O)c2ccc3c(c2)Cc2cc(S(=O)(=O)Nc4ccc(C)cc4)ccc2-3)cc1 [drawing 74]
HssR Dep (response regulator HssR): + | Heme Adapt [1]: +

COc1ccccc1NC1=C/C(=N\S(=O)(=O)c2ccc(Br)cc2)c2ccccc2C1=O [drawing 81]
HssR Dep (response regulator HssR): + | Heme Adapt [1]: +

From US8263642B2, “Antimicrobial compounds and methods of use thereof” (Vanderbilt University, priority 2008, dated 2012)
